Reference: PubChem BioAssay (NCI)
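The compound was tested at five concentrations on cells cultured in 96-well plates, with a 48-hour exposure period. Abbreviation: GI50, concentration required for 50% inhibition of growth. At the TGI there is no net growth.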

What was measured:
Assay in all cases: inhibition of tumour cell growth, NCI panel, 48 h
ACHN renal = test system: ACHN renal
K-562 leukemia = test system: K-562 leukemia
LXFL 529 NSCLC = test system: LXFL 529 NSCLC
NCI-H522 lung = test system: NCI-H522 lung
RXF 393 renal = test system: RXF 393 renal
SK-MEL-5 melanoma = test system: SK-MEL-5 melanoma
SNB-78 CNS = test system: SNB-78 CNS
UACC-62 melanoma = test system: UACC-62 melanoma
UO-31 renal = test system: UO-31 renal
MDA-MB-231 breast = test system: MDA-MB-231 breast

| SMILES | TGI (ACHN renal) | TGI (K-562 leukemia) | TGI (LXFL 529 NSCLC) | TGI (NCI-H522 lung) | TGI (RXF 393 renal) | TGI (SK-MEL-5 melanoma) | TGI (SNB-78 CNS) | TGI (UACC-62 melanoma) | TGI (UO-31 renal) | GI50 (ACHN renal) | GI50 (K-562 leukemia) | GI50 (MDA-MB-231 breast) | TGI (MDA-MB-231 breast) | GI50 (NCI-H522 lung) | GI50 (RXF 393 renal) | GI50 (SK-MEL-5 melanoma) | GI50 (UACC-62 melanoma) | GI50 (UO-31 renal) |
| --- | --- | --- | --- | --- | --- | --- | --- | --- | --- | --- | --- | --- | --- | --- | --- | --- | --- | --- |
| CCCCNC(=O)C1C(=O)N(CCCC)C(=O)/C1=N\N (configuration not stated) | > 100 µM | > 100 µM | > 100 µM | > 100 µM | > 100 µM | > 100 µM | > 100 µM | > 100 µM | > 100 µM |  |  |  |  |  |  |  |  |  |
| O=c1c2ccccc2nc(/C=C(\O)c2ccncc2)n1-c1ccc(Cl)cc1 | > 100 µM | > 100 µM | > 100 µM | > 100 µM |  | > 100 µM | > 100 µM | > 100 µM | > 100 µM |  |  |  |  |  |  |  |  |  |
| O=C(O)COc1ccc(C(=O)/C(SS/C(C(=O)c2ccc(OCC(=O)O)c(Cl)c2Cl)=C2\C=C(c3ccc(Cl)cc3)SS2)=C2/C=C(c3ccc(Cl)cc3)SS2)c(Cl)c1Cl | 25.4 µM | 10.7 µM | 14.4 µM | 9.54 µM |  | 48.1 µM | 25.5 µM | 25.7 µM | 16.9 µM |  |  |  |  |  |  |  |  |  |
| O=C(c1ccccc1)C(c1ccccc1)C1(O)C(=O)Nc2ccc([N+](=O)[O-])cc21 (configuration not stated) | > 100 µM | > 100 µM | > 100 µM | > 100 µM | > 100 µM | 57.7 µM | > 100 µM | > 100 µM | > 100 µM |  |  |  |  |  |  |  |  |  |
| Nc1nc(Cl)cc(NCC(O)CO)n1 (configuration not stated) |  | > 100 µM | > 100 µM |  | > 100 µM | > 100 µM | > 100 µM | > 100 µM | > 100 µM |  |  |  |  |  |  |  |  |  |
| O=C(OC1CCC2OOC1O2)c1ccc([N+](=O)[O-])cc1 (configuration not stated) | > 100 µM | > 100 µM |  | > 100 µM | > 100 µM | > 100 µM | > 100 µM | > 100 µM | > 100 µM |  |  |  |  |  |  |  |  |  |
| CCC(O)C1Cc2c(C)cc3c(c2O1)C(=O)c1ccccc1C3=O (configuration not stated) | > 100 µM | > 100 µM | > 100 µM | 51.6 µM |  | > 100 µM | 90.6 µM | > 100 µM | 61.2 µM |  |  |  |  |  |  |  |  |  |
| CCOC(=O)Cc1csc(Nc2ccc(OCC)cc2)n1 | > 100 µM | > 100 µM | > 100 µM | > 100 µM | > 100 µM |  | > 100 µM |  | > 100 µM |  |  |  |  |  |  |  |  |  |
| Cc1ccc(-c2cc3c4c(nc5ccccc53)C(=O)c3cccnc3-c4n2)cc1 | 80.6 µM | > 100 µM |  | 21.9 µM | > 100 µM | 3.89 µM |  | 31.1 µM | > 82.6 µM | 22.5 µM | 0.39 µM | 16.8 µM | > 69.9 µM | 5.55 µM | 9.58 µM | 1.67 µM | 16 µM | 17.1 µM |
| CN1CCC2(CC1)NC(=O)c1c(c3ccc(Cl)c(Cl)c3n1C)C2C#N (configuration not stated) | 19.4 µM | > 100 µM |  | 44.8 µM | 7.3 µM | 5.18 µM |  | 3.22 µM | 17.4 µM | 5.75 µM | 5.76 µM | 5.19 µM | 15.2 µM | 15.2 µM | 2.27 µM | 2.11 µM | 1.66 µM | 4.21 µM |
| CCCCCCCCCCCC(=O)N1CCN(C(C)=O)CC1 | > 100 µM | 59.7 µM |  | 38.4 µM | 33.4 µM | 38.9 µM |  | 34.9 µM | 42.6 µM | 62.1 µM | 22.9 µM | 21 µM | 38.2 µM | 17.4 µM | 15.4 µM | 23.7 µM | 19.7 µM | 18.7 µM |
| C[C@]12CC[C@@H]3c4cc(OC(F)F)c(OS(N)(=O)=O)cc4CC[C@H]3[C@@H]1CC[C@@H]2OS(N)(=O)=O | 25.6 µM | > 100 µM |  | 12.7 µM | 16.1 µM | 13.4 µM |  | 16.8 µM | 19.4 µM | 1.8 µM | 0.389 µM | 3.05 µM | 28.2 µM | 0.689 µM | 4.16 µM | 1.21 µM | 1.38 µM | 1.42 µM |
| COc1cc(-c2oc3c(OC)cc(OC)c(O)c3c(=O)c2OC)cc(OC)c1OC | > 100 µM | > 100 µM |  | 40.2 µM | > 100 µM | > 100 µM |  | > 100 µM | > 100 µM |  |  |  | > 100 µM |  |  |  |  |  |
| CCN1C(=O)N(CC)C2C1NN=c1s/c(=C\c3ccco3)c(=O)n12 (configuration not stated) | > 100 µM | > 100 µM |  |  | > 23.4 µM | 55.3 µM |  | > 100 µM | > 100 µM | 0.818 µM | 0.311 µM | 0.961 µM | 41.2 µM | 0.33 µM | 0.558 µM | 0.415 µM | 0.446 µM | 0.852 µM |
| Cc1cc(C)n(-c2ccnc3cc(Cl)ccc23)n1 | > 100 µM | > 100 µM | > 100 µM |  | > 100 µM | > 100 µM | > 100 µM | > 100 µM | > 100 µM |  |  |  |  |  |  |  |  |  |
| COc1ccc2cc(C(=O)/C=C/c3ccc(N(C)C)cc3)ccc2c1 | > 100 µM | > 100 µM |  | > 100 µM | > 100 µM | 72.8 µM |  | > 100 µM | > 100 µM | 81.4 µM | > 100 µM | 40.2 µM | > 100 µM | 39.1 µM | 41.4 µM | 36.9 µM | > 100 µM | > 100 µM |
| COc1ccc2c(c1)CC[C@@H]1[C@@H]2CC[C@]2(C)c3c(cc(C(=O)O)c4sccc34)C[C@@H]12 | 78.4 µM | 20.9 µM |  | 86.8 µM | 36 µM | 28.4 µM |  | 36.5 µM | 64.7 µM | 18.9 µM | 5.79 µM | 25.6 µM | 59.7 µM | 24.7 µM | 16.5 µM | 14.7 µM | 17.1 µM | 20.2 µM |
| COc1cc2c(cc1Cc1cccc(Cl)c1F)c(=O)c(C(=O)O)cn2[C@@H](CO)C(C)C | 20.9 µM | 16.3 µM |  | 11.7 µM | 16.3 µM | 8.88 µM |  | 10.1 µM | 11.9 µM | 4.63 µM | 3.84 µM | 3.84 µM | 19.7 µM | 3.51 µM | 4.57 µM | 2.85 µM | 2.74 µM | 2.62 µM |
